Eight compounds from US4186136A, “Novel benzothienyl amino (propyl and butyl) ketones, a method of preparation thereof and their application to therapeutics” (priority 1975, dated 1980) can be followed below.

For series [1], the system named is phenylparaquinone (P.P.Q.) painful syndrome in a mouse. The series can be described thus: Analgesic and anti-inflammatory activity, phenylparaquinone (P.P.Q.) painful syndrome. It counts as in vivo. The note with it: for Analgesic and anti-inflammatory activity, percentage activity a(X): 50 mg/kg digestively; for a(X) / a(R), analgesic and anti-inflammatory activity: X 50 mg/kg, R (Galfenine) 25 mg/kg. How it is done: The intraperitoneal injection of phenylparaquinone (P.P.Q.) in a mouse causes the appearance of a painful syndrome appearing within 5 minutes of the injection and disappearing after about 30 minutes (SIEGMUND E. A., CADMUS A., LU G., J. Pharmacol. Exp. Therap. 1957, 119, 453). This painful syndrome manifests itself in the animal by a series of characteristic crises, more or less close together and fleeting, during which we can note a twisting or stretching of the body, a hollowing of the sides and a stretching of the hind legs.
It is therefore possible to note the number of crises in a given interval of time.
The preventive administration of analgesic or anti-inflammatory substances prevents the appearance of crises or reduces the frequency thereof.
The reference substance (R) used in the tests was the ester of N-(7-chloro-4 quinolyl) anthranilic acid and 2,3-dihydroxy n.propanol (known under the trademark Galfenine).
It was administered orally with a dose of 25 mg/kg.
The compounds of formula I (X) were administered digestively with a dose of 50 mg/kg.
The interval of time (t) which was chosen to evaluate the analgesic activity was between 10 and 15 minutes which is the period of maximum frequency of the crises. This activity was expressed in the following way:
n: number of crises observed in the control mice;
n': number of crises observed in mice previously treated with the reference substance (R);
n": number of crises observed in mice having received the substance (X).
The percentage activity of R is equal to [formula]
The percentage activity of X is equal to [formula]
The activity of X in relation to that of R is estimated by the ratio [formula]
For example: a compound X for which [formula] is 0.5 has an activity equal to half that of the reference product.

In series [2] the test system is human blood-plaques (aggregation with D.P.A.). The series can be described thus: Inhibition of blood-plaque aggregation induced by D.P.A. Format: cell-based. The following applies: for Ratio of a (X) to a (R), D.P.A. (head drawn): X 2.5×10^-5 g/ml, R 5×10^-4 g/ml; for inhibition at 25 µg/mL: Homo sapiens, C (X)=2.5×10^-5 g/ml, read-out: Inhibitory activity of the blood-plaque aggregation, D.P.A., a (X). From the text: (§1) The blood plaques used for these studies were human blood-plaques introduced into the test in the form of blood-plaque rich plasmas (B.P.R.P.).
(§2) These latter were obtained as water-repellent material by slow centrifugation from human blood samples.
(§3) The study of blood-plaque aggregation was made by means of an aggregate-meter with continuous agitation and graphic recording according to the conventional method. (PROST R. S., SOUVERAIN C. H., DOUMENC J., Etude de l'agregation plaquettaire a l'aide de l'agregametre de MUSTARD-Coagulation, 1971, 4, 2, 145-151).
(§4) The agents employed for inducing aggregation were diphosphoric adenosine acid (D.P.A.), 1-(3',4'-di-hydroxyphenyl)-2-methylamino ethanol (adrenaline) and collagene. All these reactants were prepared from mother solutions diluted in a Michaelis' buffer. Their concentration in the test may vary according to the affinity of the blood-plaques.
(§5) An optimum concentration is thus sought by successive tests on the same B.P.R.P.
(§6) The inhibitory activity on the aggregation was evaluated by addition of the product under study to the B.P.R.P. before introduction of the aggregating agent.
(§7) The concentrations of compounds of formula I (X) in the B.P.R.P. are: C (X)=2.5×10^-5 g/ml for aggregation with D.P.A. and adrenaline, and C (X)=2×10^-5 g/ml for collagene.
(§8) The reference product (R) is 2,6-bis (diethanolamino)-4,8-dipiperidinopyrimido[5,4-d]pyramidine (known under the trademark "Dipyridamole") used in the concentration C (R)=5×10^-4 g/ml for aggregation with D.P.A. and adrenaline and C (R)=2×10^-4 g/ml for aggregation with collagene.
(§9) The following table IV indicates the activity of some compounds of formula I: a (X) the activity of the reference product: a (R) and the different values of the ratio: [formula]

Series [3] relates to human blood-plaques (aggregation with collagene). The series can be described thus: Inhibition of blood-plaque aggregation induced by collagene. Format: cell-based. The following applies: for inhibition at 20 µg/mL: Homo sapiens, read-out: Inhibitory activity of the blood-plaque aggregation, COLLAGENE, a (X); for Ratio of a (X) to a (R), COLLAGENE (head drawn): X 2×10^-5 g/ml, R 2×10^-4 g/ml.
Description: as §1, §2, §3, §4, §5, §6, §7, §8, §9

Series [4] in a line: Acute toxicity, oral, mouse (LD 50, Miller and Tainter). Format: in vivo. The note with it: in vivo, po, death rate checked for seven days, read-out: 50% lethal dose (LD 50) (converted). How it is done: The acute toxicity of the compounds of formula (I) were evaluated orally (esophagean probe) on a mouse deprived of food 18 hours before the beginning of the test. The products were placed in suspension in a solution of dilute carboxymethyl cellulose. Calculation of the 50 lethal dose (LD 50) was effected according to the method of Miller and Tainter (Miller L. C., Tainter M. L., Proc. Soc. Exptl. Biol. Med. 1944, 57, 261-264).
The death rate was checked for seven days following the treatment.
Table III gives the 50% lethal doses (LD 50) in milligrammes per kilogramme body weight.

Series [5] has as its system human blood-plaques (aggregation with adrenaline). The series can be described thus: Inhibition of blood-plaque aggregation induced by adrenaline. The note with it: for inhibition at 25 µg/mL: Homo sapiens, C (X)=2.5×10^-5 g/ml, read-out: Inhibitory activity of the blood-plaque aggregation, ADRENALINE, a (X); for Ratio of a (X) to a (R), ADRENALINE (head drawn): X 2.5×10^-5 g/ml, R 5×10^-4 g/ml. It counts as cell-based.
Description: as §1, §2, §3, §4, §5, §6, §7, §8, §9

The subject of another series is rat's isolated duodenum. Description: Spasmolytic activity on isolated duodenum contracted by barium chloride (Magnus). The following applies: for IC50: Rattus norvegicus, barium chloride contraction, Tyrode, 38° C., read-out: Spasmolytic activity ED 50 (X); for ED 50 (R) / ED 50 (X): relative to papaverine hydrochloride. How it is done: The spasmolytic activity was studied on a rat's isolated duodenum maintained in a survival medium of an aerated Tyrode solution heated to 38° C. according to the technique of Magnus (Magnus R.-Archivs ges. Physiol., 1905, 180, 1-71).
The contracting agent used was barium chloride, the reference antogonist agent being papaverine hydrochloride (R). The average activity of the compounds of formula I (X) in comparison with that of the reference agent was expressed by calculating the ratio of the 50 efficient doses (ED 50) determined graphically on logarithmic paper: [formula]
For example: a substance having a relative activity expressed by the FIG. 2 presents an activity equal to twice that of papaverine hydrochloride.

[6] abbreviates: crises between 10 and 15 minutes.

Values after ≈ are worked out from the molar mass of the structure shown. Values joined by “and” are separate entries in the source; they are usually repeats but may differ in a detail not shown here. Equal entries are not always repeated. Structures can show the parent of a compound that is named as a salt. Bounds are passed on as bounds.

On to `O=C(OCC(O)CO)c1ccccc1Nc1ccnc2cc(Cl)ccc12` (centres unmarked) [Galfenine, ester of N-(7-chloro-4 quinolyl) anthranilic acid and 2,3-dihydroxy n.propanol, reference compound], for which the “Analgesic and anti-inflammatory activity, percentage activity a(R)” value in series [1] (reference substance, 25 mg/kg orally, crises between 10 and 15 minutes, 25 mg/kg) is 75% and 77% and 45% and 74%.
Take `O=C(CCCN1CCCCC1)c1cc2ccccc2s1` [Compound 5]: in series [2], the “Ratio of a (X) to a (R), D.P.A. (head drawn)” value (shortened to “Ratio … D.P.A. (head drawn)”) was 1.5×10^-1 and the inhibition at 25 µg/mL was determined as 8%. The inhibition at 20 µg/mL in series [3] (C (X)=2×10^-5 g/ml) stood at 12%. The “Ratio of a (X) to a (R), COLLAGENE (head drawn)” value (shortened to “Ratio … COLLAGENE (head drawn)”) in series [3] is listed as 1.4×10^-1. The LD50 at 168 h in series [4] is 1300 mg/kg. Also, in series [5], the inhibition at 25 µg/mL was determined as 84% and the “Ratio of a (X) to a (R), ADRENALINE (head drawn)” value (from here on “Ratio … ADRENALINE (head drawn)”) amounted to 1.1.
As for `O=C(CCCN1CCCCC1)c1csc2ccccc12` [Compound 14], in series [4], the LD50 at 168 h was 850 mg/kg. The “Analgesic and anti-inflammatory activity, percentage activity a(X)” value in series [1] (setting [6]) was found to be 39%. For the same compound, the “a(X) / a(R), analgesic and anti-inflammatory activity” value in series [1] is 5.3 × 10^-1. Moreover, in series [5], the inhibition at 25 µg/mL is 42% and the “Ratio … ADRENALINE (head drawn)” value is given as 5.5×10^-1.
`O=C(CCCN1CCCC1)c1csc2ccccc12` [Compound 13]: in series [2], the “Ratio … D.P.A. (head drawn)” value is 2.3×10^-1 and the inhibition at 25 µg/mL is 18%. Besides, the LD50 at 168 h in series [4] is 760 mg/kg. In series [5], the inhibition at 25 µg/mL was found to be 84% and the “Ratio … ADRENALINE (head drawn)” value stood at 1.1. Besides, in the series on rat's isolated duodenum, the IC50 was 2.25 mg/L (≈ 8.23 µM) and the “ED 50 (R) / ED 50 (X)” value was determined as 1.55.
As for `CN(C)CCCC(=O)c1cc2ccccc2s1` [Compound 4], the inhibition at 20 µg/mL in series [3] (C (X)=2×10^-5 g/ml) stood at 39%. For the same compound, in series [3], the “Ratio … COLLAGENE (head drawn)” value is reported as 4.5×10^-1. Moreover, the LD50 at 168 h in series [4] is 950 mg/kg. In series [5], the inhibition at 25 µg/mL was 78% and the “Ratio … ADRENALINE (head drawn)” value came out at 1.
As for `C=CCN(CC=C)CCCC(=O)c1cc2ccccc2s1` [Compound 3, 1-(benzothien-2'-yl)-4-N,N-diallylamino butanone oxalate], in series [2], the “Ratio … D.P.A. (head drawn)” value was 1.7×10^-1 and the inhibition at 25 µg/mL is 15%. For the same compound, the inhibition at 20 µg/mL in series [3] (C (X)=2×10^-5 g/ml) was determined as 13%. The “Ratio … COLLAGENE (head drawn)” value in series [3] was 1.95×10^-1. In addition, in the series with rat's isolated duodenum, the IC50 is 1.2 mg/L and the “ED 50 (R) / ED 50 (X)” value was 2.08.
Consider `O=C(CCCN1CCOCC1)c1cc2ccccc2s1` [Compound 6], for which, in series [2], the “Ratio … D.P.A. (head drawn)” value is on record as 1.7×10^-1 and the inhibition at 25 µg/mL was 15%. Moreover, the “Inhibitory activity of the blood-plaque aggregation, COLLAGENE, a (X)” value in series [3] (C (X)=2×10^-5 g/ml) was 32%. The “Ratio … COLLAGENE (head drawn)” value in series [3] was 3.5×10^-1. Moreover, in series [1] (setting [6]), the “Analgesic and anti-inflammatory activity, percentage activity a(X)” value is 55%. In series [1], the “a(X) / a(R), analgesic and anti-inflammatory activity” value is 7 × 10^-1.
Regarding `CCN(CC)CCCC(=O)c1csc2ccccc12` [Compound 9], in series [2], the “Ratio … D.P.A. (head drawn)” value is 1.9×10^-1 and the inhibition at 25 µg/mL was determined as 15%. For the same compound, in series [3] (C (X)=2×10^-5 g/ml), the inhibition at 20 µg/mL was determined as 16%. For the same compound, in series [3], the “Ratio … COLLAGENE (head drawn)” value was 3×10^-1. The LD50 at 168 h in series [4] is greater than 1200 mg/kg. For the same compound, the “Analgesic and anti-inflammatory activity, percentage activity a(X)” value in series [1] (setting [6]) came to 47%. For the same compound, in series [1], the “a(X) / a(R), analgesic and anti-inflammatory activity” value is given as 1. Besides, in series [5], the inhibition at 25 µg/mL worked out at 86% and the “Ratio … ADRENALINE (head drawn)” value was 1. Besides, in the series with rat's isolated duodenum, the “ED 50 (R) / ED 50 (X)” value is given as 8.10.
